One assay addresses T1, VEGFR-2 (Homo sapiens, UniProt P35968).
T1 construct: purchased BPS Biosciences 40325
The experiment in a line: VEGFR-2 kinase assay kit (BPS), Kinase-Glo Max luminescence. Conditions: VEGFR-2, single dose 10 µM, duplicate, mean ± SD. The format is biochemical. In general terms: Kinase-Glo reads ATP consumption through a luciferase reaction.

For assay [1], the system named is NCI panel of 60 tumor cell lines. The experiment in a line: NCI SRB growth inhibition, whole panel mean (single dose 10 µM / five-dose). Particulars: for GI50: mean over NCI cancer cell lines, five-dose. It is filed as cell-based, human. The gist of the method: (§1)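 SRB read-out. Plating density 5000–40,000 cells/well; Tz fixed at 24 h; 5 conc. (10-fold or ½ log) + control; TCA fix, 0.4% SRB/1% AcOH 10 min RT; % growth = (Ti−Tz)/(C−Tz)×100, or (Ti−Tz)/Tz×100 when Ti<Tz.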

Another assay has as its system HL-60(TB). The experiment in a line: NCI SRB growth inhibition (single dose 10 µM / five-dose). The format is cell-based, human. Conditions: for inhibition at 10 µM: read-out: GI%; for GI50: HL-60(TB), Leukemia, five-dose. The gist of the method: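 Growth inhibition is derived from seven absorbance readings per agent (Tz, C and five Ti). Where a parameter level is not reached or is exceeded, the value is given as greater or less than the highest or lowest concentration tested.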

In a further assay the test system is LOX IMVI. The description is as above. It is filed as cell-based, human. Particulars: for inhibition at 10 µM: read-out: GI%; for GI50: LOX IMVI, Melanoma, five-dose. In short, it runs like this:
as §1

For the next assay, the system named is OVCAR-4. The description is as above. The format is cell-based, human. Conditions: for inhibition at 10 µM: read-out: GI%; for GI50: OVCAR-4, Ovarian cancer, five-dose. In short, it runs like this:
as §1

The subject of another assay is SF-295. The assay is described as above. It is filed as cell-based, human. Particulars: for inhibition at 10 µM: read-out: GI%; for GI50: SF-295, CNS cancer, five-dose. The gist of the method:
as §1

Another assay deals with UACC-62. The description is as above. The format is cell-based, human. Particulars: for inhibition at 10 µM: read-out: GI%; for GI50: UACC-62, Melanoma, five-dose. The gist of the method: as §1
For another assay, the system named is CAKI-1. The description is as above. Conditions: for inhibition at 10 µM: read-out: GI%; for GI50: CAKI-1, Renal cancer, five-dose. It is filed as cell-based, human. In short, it runs like this: as §1
The next assay has as its system DU-145. Described as above. It is filed as cell-based, human. Conditions: for inhibition at 10 µM: read-out: GI%; for GI50: DU-145, Prostate cancer, five-dose. The gist of the method:
as §1

A further assay deals with M14. The description is as above. It is filed as cell-based, human. Conditions: for inhibition at 10 µM: read-out: GI%; for GI50: M14, Melanoma, five-dose. The gist of the method: as §1
The mark [2] stands for this setting: Homo sapiens, 10 µM, mean over NCI 60 cell lines, > 100% = lethal effect, read-out: mean growth inhibition % (GI%).
Where [3] appears, read: Homo sapiens, mean over NCI panel of 60 tumor cell lines, 10 µM, read-out: Mean growth inhibition %.
The mark [4] stands for this setting: Homo sapiens, HL-60(TB) (Leukemia), 10 µM.
The mark [5] stands for this setting: Homo sapiens, LOX IMVI (Melanoma), 10 µM.
[6] abbreviates: Homo sapiens, OVCAR-4 (Ovarian cancer), 10 µM.
The mark [7] stands for this setting: Homo sapiens, SF-295 (CNS cancer), 10 µM.
[8] abbreviates: Homo sapiens, UACC-62 (Melanoma), 10 µM.
Where [9] appears, read: Homo sapiens, CAKI-1 (Renal cancer), 10 µM.
The mark [10] stands for this setting: Homo sapiens, DU-145 (Prostate cancer), 10 µM.
The mark [11] stands for this setting: Homo sapiens, M14 (Melanoma), 10 µM.

We go through three molecules from paper PMC10893631, “Receptor-based pharmacophore modeling, molecular docking, synthesis and biological evaluation of novel VEGFR-2, FGFR-1, and BRAF multi-kinase inhibitors” (BMC Chemistry, 2024).

Like-named read-outs stand apart in the source and are kept apart here. Where only a bound is given, the exact number is not on record here.

Usually GI50 stands for the concentration giving 50% growth inhibition. Read a low GI50 as more potent growth inhibition. Usually % Inhibition stands for the change of the read-out against control, counted positive when it falls. A lower % Inhibition goes with little suppression.

T1 sequence (P35968 20-1356): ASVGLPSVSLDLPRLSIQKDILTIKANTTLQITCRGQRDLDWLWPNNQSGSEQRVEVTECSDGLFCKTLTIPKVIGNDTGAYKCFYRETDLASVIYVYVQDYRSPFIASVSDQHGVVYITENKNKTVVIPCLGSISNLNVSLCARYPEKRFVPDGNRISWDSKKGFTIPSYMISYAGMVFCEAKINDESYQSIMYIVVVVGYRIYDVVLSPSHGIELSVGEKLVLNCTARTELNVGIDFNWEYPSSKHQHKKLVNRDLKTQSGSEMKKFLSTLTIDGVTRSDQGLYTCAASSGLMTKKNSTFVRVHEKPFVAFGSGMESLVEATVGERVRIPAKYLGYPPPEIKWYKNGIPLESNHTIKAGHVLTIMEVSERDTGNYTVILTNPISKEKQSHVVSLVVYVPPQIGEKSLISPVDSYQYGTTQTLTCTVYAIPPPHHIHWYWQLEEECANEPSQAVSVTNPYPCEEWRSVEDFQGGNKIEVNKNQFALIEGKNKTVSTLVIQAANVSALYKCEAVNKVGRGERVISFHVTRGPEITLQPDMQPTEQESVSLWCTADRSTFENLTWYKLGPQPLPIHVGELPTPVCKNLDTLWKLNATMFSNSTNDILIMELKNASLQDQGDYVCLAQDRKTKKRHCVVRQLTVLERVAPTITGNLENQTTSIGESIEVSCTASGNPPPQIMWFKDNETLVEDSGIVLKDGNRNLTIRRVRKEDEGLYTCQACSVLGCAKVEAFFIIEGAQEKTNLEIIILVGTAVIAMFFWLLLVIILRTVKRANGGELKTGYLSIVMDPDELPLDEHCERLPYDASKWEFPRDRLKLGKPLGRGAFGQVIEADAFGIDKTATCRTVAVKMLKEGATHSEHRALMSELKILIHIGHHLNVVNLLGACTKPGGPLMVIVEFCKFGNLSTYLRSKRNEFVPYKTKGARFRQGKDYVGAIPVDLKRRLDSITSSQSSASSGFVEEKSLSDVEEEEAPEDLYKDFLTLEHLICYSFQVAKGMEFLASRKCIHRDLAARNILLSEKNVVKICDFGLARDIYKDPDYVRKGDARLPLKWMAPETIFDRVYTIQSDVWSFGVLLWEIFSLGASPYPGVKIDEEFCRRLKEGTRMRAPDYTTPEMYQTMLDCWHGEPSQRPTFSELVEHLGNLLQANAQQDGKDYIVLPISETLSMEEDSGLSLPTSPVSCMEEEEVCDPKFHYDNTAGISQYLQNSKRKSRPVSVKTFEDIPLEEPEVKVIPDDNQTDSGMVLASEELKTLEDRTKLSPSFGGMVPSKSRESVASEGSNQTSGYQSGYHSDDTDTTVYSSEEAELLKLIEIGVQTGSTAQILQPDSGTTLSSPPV

As for `COc1ccc(OC)c(C=NNC(=O)c2ccc3[nH]c(-c4ccc(Cl)cc4)nc3c2)c1` [8t, 2-(4-Chlorophenyl)-N'-(2,5-dimethoxybenzylidene)-1H-benzo[d]imidazole-5-carbohydrazide], the inhibition at 10 µM against VEGFR-2 came out at 34 ± 2.57%; in [1] (setting [2]), 33.5%; in [1] (setting [3]) it was 33.5%; with HL-60(TB) (setting [4]), 12.9%; with LOX IMVI (setting [5]), 34.6%; in the assay with OVCAR-4 (setting [6]) it was 38.9%. Further, the inhibition at 10 µM with SF-295 (setting [7]) was 51.9%; in the assay on UACC-62 (setting [8]) it was 24.3%; with CAKI-1 (setting [9]) it was 38.4%; with DU-145 (setting [10]), 52%; in the assay with M14 (setting [11]), 30.9%.
`COc1cc(C=NNC(=O)c2ccc3[nH]c(-c4ccc(Cl)cc4)nc3c2)cc(OC)c1OC` [8u, 2-(4-Chlorophenyl)-N'-(3,4,5-trimethoxybenzylidene)-1H-benzo[d]imidazole-5-carbohydrazide]: the inhibition at 10 µM at VEGFR-2 is 80 ± 3.98%; in [1] (setting [2]), over 100%; in assay [1] (setting [3]) it was over 100%; with HL-60(TB) (setting [4]), 67.8%; in the assay with LOX IMVI (setting [5]), over 100%; with OVCAR-4 (setting [6]), over 100%. Besides, the inhibition at 10 µM is over 100% with SF-295 (setting [7]); over 100% with UACC-62 (setting [8]); 97.1% in the assay with CAKI-1 (setting [9]); over 100% in the assay with DU-145 (setting [10]); over 100% with M14 (setting [11]). Also, the GI50 in assay [1] (Homo sapiens) was 7.98 µM; in the assay on HL-60(TB) (Homo sapiens), 3.9 µM; in the assay on LOX IMVI (Homo sapiens) it was 4.67 µM; with OVCAR-4 (Homo sapiens), 2.35 µM; in the assay on SF-295 (Homo sapiens), 4.18 µM; in the assay with UACC-62 (Homo sapiens) it was 1.24 µM. The GI50 in the assay on CAKI-1 (Homo sapiens) is 11.2 µM; with DU-145 (Homo sapiens) it was 6.77 µM; in the assay on M14 (Homo sapiens), 3.77 µM.
In the case of “N'-(2-Hydroxybenzylidene)-2-phenyl-1H-benzo[d]imidazole-5-carbohydrazide [8a]”, the “% Inhibition” value at VEGFR-2 was found to be 43.03 ± 2.32%. Further, in assay [1] (10 µM, mean over NCI 60 cell lines, > 100% = lethal effect), the “mean growth inhibition % (GI%)” value is recorded as 97.73%. The GI50 in assay [1] turned out to be 3 µM; with HL-60(TB), 3.08 µM; in the assay on LOX IMVI it was 2 µM; with OVCAR-4, 2.24 µM; in the assay on SF-295, 2.7 µM; with UACC-62 it was 3.66 µM. Moreover, the values for the GI50 in the assay on CAKI-1, in the assay on DU-145 and in the assay on M14 were 3.48 µM, 2.75 µM and 0.92 µM, respectively. Further, the “Mean growth inhibition %” value in assay [1] (mean over NCI panel of 60 tumor cell lines, 10 µM) worked out at 97.73%. Further, the GI% was 95.58% with HL-60(TB) (HL-60(TB) (Leukemia), 10 µM); 88.38% with LOX IMVI (LOX IMVI (Melanoma), 10 µM); 94.42% in the assay on OVCAR-4 (OVCAR-4 (Ovarian cancer), 10 µM); “L (GI% > 100)” in the assay on SF-295 (SF-295 (CNS cancer), 10 µM); 75.88% in the assay with UACC-62 (UACC-62 (Melanoma), 10 µM); “L (GI% > 100)” in the assay on CAKI-1 (CAKI-1 (Renal cancer), 10 µM). Also, the GI% result in the assay on DU-145 (DU-145 (Prostate cancer), 10 µM) is recorded as “L (GI% > 100)”; with M14 (M14 (Melanoma), 10 µM) it was 81.80%.
